Assay results: patent EP0908457B1, “3-(1,2-benzisothiazol- and isoxazol-5-Y1)-2,4(1H,3H)-pyrimidinedione or thione and 3-(1,2-benzisothiazol- and isoxazol-5-y1)-4(3H)-pyrimidinone or thione herbicidal agents” (BASF AKTIENGESELLSCHAFT, priority 1997, dated 1999)

What was measured:
[1] = tested on: Echinochloa oryzoides (Ard.) Fritsch.; test: Preemergence weed control under flooded paddy conditions, ECHORC (Watergrass (Calif.)); type: in vivo; conditions: preemergence, flooded paddy, rated three to four weeks after treatment
Cyperus iria = test: Preemergence weed control under flooded paddy conditions, CYPIR (Rice Flatsedge); type: in vivo; conditions: preemergence, flooded paddy, rated three to four weeks after treatment
[2] = tested on: Cyperus serotinus, Rottb.; test: Preemergence weed control under flooded paddy conditions, CYPSE (Flatsedge); type: in vivo; conditions: preemergence, rated three to four weeks after treatment
[3] = tested on: Monochoria vaginalis, Presl.; test: Preemergence weed control under flooded paddy conditions, MOOVA (Monochoria); type: in vivo; conditions: preemergence, flooded paddy, rated three to four weeks after treatment
Sagittaria pygmaea, L. = test: Preemergence weed control under flooded paddy conditions, SAGPY (Arrowhead (Pygmaea)); type: in vivo; conditions: preemergence, flooded paddy, rated three to four weeks after treatment
[4] = tested on: Oryza sativa, (L.) Tebonnet; test: Rice tolerance to post-transplant applications under flooded paddy conditions (Example 187), ORYSAT (Rice, Tebonnet); conditions: rated three to four weeks after treatment

| Structure (SMILES) | ECHORC herbicidal effect rating ([1]; Rate 0.0320 kg/ha) | ECHORC herbicidal effect rating ([1]; Rate 0.0620 kg/ha) | ECHORC herbicidal effect rating ([1]; Rate 0.1250 kg/ha) | ECHORC herbicidal effect rating ([1]; Rate 0.2500 kg/ha) | ECHORC herbicidal effect rating ([1]; Rate 0.5000 kg/ha) | CYPIR herbicidal effect rating (Cyperus iria; Rate 0.0320 kg/ha) | CYPIR herbicidal effect rating (Cyperus iria; Rate 0.0620 kg/ha) | CYPIR herbicidal effect rating (Cyperus iria; Rate 0.1250 kg/ha) | CYPIR herbicidal effect rating (Cyperus iria; Rate 0.2500 kg/ha) | CYPIR herbicidal effect rating (Cyperus iria; Rate 0.5000 kg/ha) | CYPSE herbicidal effect rating ([2]; Rate 0.0320 kg/ha) | CYPSE herbicidal effect rating ([2]; Rate 0.0620 kg/ha) | CYPSE herbicidal effect rating ([2]; Rate 0.1250 kg/ha) | CYPSE herbicidal effect rating ([2]; Rate 0.5000 kg/ha) | MOOVA herbicidal effect rating ([3]; Rate 0.1250 kg/ha) | MOOVA herbicidal effect rating ([3]; Rate 0.2500 kg/ha) | MOOVA herbicidal effect rating ([3]; Rate 0.5000 kg/ha) | SAGPY herbicidal effect rating (Sagittaria pygmaea, L.; Rate 0.0320 kg/ha) | SAGPY herbicidal effect rating (Sagittaria pygmaea, L.; Rate 0.0620 kg/ha) | SAGPY herbicidal effect rating (Sagittaria pygmaea, L.; Rate 0.1250 kg/ha) | further results |
| --- | --- | --- | --- | --- | --- | --- | --- | --- | --- | --- | --- | --- | --- | --- | --- | --- | --- | --- | --- | --- | --- |
| COC(=O)C(C)Oc1c(-c2nsc3ccc(-n4c(=O)cc(C(F)(F)F)n(C)c4=O)cc23)ccc(C)c1C (stereo not drawn) [Example 275, Propionic acid, 2-{{6-{5-[3,6-dihydro-3-methyl-2,6-dioxo-4-(trifluoromethyl)-1(2H)-pyrimidinyl]-1,2-benzisothiazol-3-yl}-2,3-xylyl}oxy}-, methyl ester] | 3.7 | 3.9 | 4.1 | 9.0 | 7.0 | 0.0 | 4.0 | 6.0 | 7.0 | 0.0 | 9.0 | 9.0 | 9.0 | 0.0 | 9.0 | 9.0 | 9.0 | 0.0 | 0.0 | 3.0 | CYPSE herbicidal effect rating ([2]; Rate 0.2500 kg/ha): 9.0; MOOVA herbicidal effect rating ([3]; Rate 0.0320 kg/ha): 6.0; MOOVA herbicidal effect rating ([3]; Rate 0.0620 kg/ha): 9.0; SAGPY herbicidal effect rating (Sagittaria pygmaea, L.; Rate 0.2500 kg/ha): 9.0; SAGPY herbicidal effect rating (Sagittaria pygmaea, L.; Rate 0.5000 kg/ha): 0.0; ORYSAT herbicidal effect rating ([4]; Rate 0.0320 kg/ha): 0.0; ORYSAT herbicidal effect rating ([4]; Rate 0.0620 kg/ha): 0.0; ORYSAT herbicidal effect rating ([4]; Rate 0.1250 kg/ha): 3.0; ORYSAT herbicidal effect rating ([4]; Rate 0.2500 kg/ha): 4.0; ORYSAT herbicidal effect rating ([4]; Rate 0.5000 kg/ha): 5.0 |
| C=Cc1nsc2ccc(-n3c(=O)cc(C(F)(F)F)n(C)c3=O)cc12 [Example 276, 2,4(1H,3H)-Pyrimidinedione, 1-methyl-6-(trifluoromethyl)-3-(3-vinyl-1,2-benzisothiazol-5-yl)-] | 4.0 | 7.7 | 7.9 | 9.0 | 9.0 | 8.0 | 9.0 | 9.0 | 9.0 | 9.0 | 2.0 | 2.0 | 8.0 | 7.0 | 9.0 | 9.0 | 9.0 | 8.0 | 9.0 | 9.0 | CYPSE herbicidal effect rating ([2]; Rate 0.2500 kg/ha): 7.0; MOOVA herbicidal effect rating ([3]; Rate 0.0320 kg/ha): 9.0; MOOVA herbicidal effect rating ([3]; Rate 0.0620 kg/ha): 9.0; SAGPY herbicidal effect rating (Sagittaria pygmaea, L.; Rate 0.2500 kg/ha): 9.0; SAGPY herbicidal effect rating (Sagittaria pygmaea, L.; Rate 0.5000 kg/ha): 9.0; ORYSAT herbicidal effect rating ([4]; Rate 0.0320 kg/ha): 4.0; ORYSAT herbicidal effect rating ([4]; Rate 0.0620 kg/ha): 5.0; ORYSAT herbicidal effect rating ([4]; Rate 0.1250 kg/ha): 6.0; ORYSAT herbicidal effect rating ([4]; Rate 0.2500 kg/ha): 7.0; ORYSAT herbicidal effect rating ([4]; Rate 0.5000 kg/ha): 9.0 |
| CO/N=C/c1nsc2ccc(-n3c(=O)cc(C(F)(F)F)n(C)c3=O)cc12 [Example 277, 1,2-Benzisothiazole-3-carboxaldehyde, 5-[3,6-dihydro-3-methyl-2,6-dioxo-4-(trifluoromethyl)-1(2H)-pyrimidinyl]-, 3-(O-methyloxime), (E)-] | 7.0 | 8.6 | 9.0 | 9.0 | 9.0 | 9.0 | 9.0 | 9.0 | 9.0 | 9.0 | 2.0 | 9.0 | 9.0 | 9.0 | 9.0 | 9.0 | 9.0 | 6.0 | 8.0 | 9.0 | CYPSE herbicidal effect rating ([2]; Rate 0.2500 kg/ha): 9.0; MOOVA herbicidal effect rating ([3]; Rate 0.0320 kg/ha): 9.0; MOOVA herbicidal effect rating ([3]; Rate 0.0620 kg/ha): 9.0; SAGPY herbicidal effect rating (Sagittaria pygmaea, L.; Rate 0.2500 kg/ha): 9.0; SAGPY herbicidal effect rating (Sagittaria pygmaea, L.; Rate 0.5000 kg/ha): 9.0; ORYSAT herbicidal effect rating ([4]; Rate 0.0320 kg/ha): 5.0; ORYSAT herbicidal effect rating ([4]; Rate 0.0620 kg/ha): 7.0; ORYSAT herbicidal effect rating ([4]; Rate 0.1250 kg/ha): 7.0; ORYSAT herbicidal effect rating ([4]; Rate 0.2500 kg/ha): 8.0; ORYSAT herbicidal effect rating ([4]; Rate 0.5000 kg/ha): 9.0 |
| Cn1c(C(F)(F)F)cc(=O)n(-c2ccc3snc(/C=N/O)c3c2)c1=O [Example 278, 1,2-Benzisothiazole-3-carboxaldehyde, 5-[3,6-dihydro-3-methyl-2,6-dioxo-4-(trifluoromethyl)-1(2H)-pyrimidinyl]-, 3-oxime, (E)-] | 0.0 | 6.1 | 7.4 | 8.0 | 9.0 | 0.0 | 2.0 | 7.0 | 9.0 | 9.0 | 0.0 | 0.0 | 2.0 | 9.0 | 9.0 | 9.0 | 9.0 | 0.0 | 0.0 | 0.0 | CYPSE herbicidal effect rating ([2]; Rate 0.2500 kg/ha): 4.0; MOOVA herbicidal effect rating ([3]; Rate 0.0320 kg/ha): 6.0; MOOVA herbicidal effect rating ([3]; Rate 0.0620 kg/ha): 8.0; SAGPY herbicidal effect rating (Sagittaria pygmaea, L.; Rate 0.2500 kg/ha): 2.0; SAGPY herbicidal effect rating (Sagittaria pygmaea, L.; Rate 0.5000 kg/ha): 9.0; ORYSAT herbicidal effect rating ([4]; Rate 0.0320 kg/ha): 2.0; ORYSAT herbicidal effect rating ([4]; Rate 0.0620 kg/ha): 3.0; ORYSAT herbicidal effect rating ([4]; Rate 0.1250 kg/ha): 4.0; ORYSAT herbicidal effect rating ([4]; Rate 0.2500 kg/ha): 7.0; ORYSAT herbicidal effect rating ([4]; Rate 0.5000 kg/ha): 8.0 |
| COC(=O)/C=C/c1nsc2ccc(-n3c(=O)cc(C(F)(F)F)n(C)c3=O)cc12 [Example 279, 1,2-Benzisothiazole-3-acrylic acid, 5-[3,6-dihydro-3-methyl-2,6-dioxo-4-(trifluoromethyl)-1(2H)-pyrimidinyl]-, methyl ester, (E)-] | 0.0 | 5.7 | 6.1 | 6.0 | 7.0 | 0.0 | 0.0 | 2.0 | 6.0 | 9.0 | 0.0 | 0.0 | 0.0 | 5.0 | 8.0 | 9.0 | 9.0 | 0.0 | 0.0 | 0.0 | SAGPY herbicidal effect rating (Sagittaria pygmaea, L.; Rate 0.2500 kg/ha): 4.0; SAGPY herbicidal effect rating (Sagittaria pygmaea, L.; Rate 0.5000 kg/ha): 9.0; ORYSAT herbicidal effect rating ([4]; Rate 0.0320 kg/ha): 2.0; ORYSAT herbicidal effect rating ([4]; Rate 0.0620 kg/ha): 3.0; ORYSAT herbicidal effect rating ([4]; Rate 0.1250 kg/ha): 4.0; ORYSAT herbicidal effect rating ([4]; Rate 0.2500 kg/ha): 4.0; ORYSAT herbicidal effect rating ([4]; Rate 0.5000 kg/ha): 6.0 |
| C#CCOC(=O)COc1c(-c2nsc3ccc(-n4c(=O)cc(C(F)(F)F)n(C)c4=O)cc23)ccc(C)c1C [Example 280, Acetic acid, {{6-[5-[3,6-dihydro-3-methyl-2,6-dioxo-4-(trifluoromethyl)-1(2H)-pyrimidinyl]-1,2-benzisothiazol-3-yl}-2,3-xylyl}oxy}-, 2-propynyl ester] | 0.0 | 5.7 | 7.6 | 9.0 | 9.0 | 2.0 | 6.0 | 8.0 | 9.0 | 9.0 | 0.0 | 0.0 | 0.0 | 3.0 | 9.0 | 9.0 | 9.0 | 0.0 | 0.0 | 2.0 | CYPSE herbicidal effect rating ([2]; Rate 0.2500 kg/ha): 2.0; MOOVA herbicidal effect rating ([3]; Rate 0.0320 kg/ha): 9.0; MOOVA herbicidal effect rating ([3]; Rate 0.0620 kg/ha): 9.0; SAGPY herbicidal effect rating (Sagittaria pygmaea, L.; Rate 0.2500 kg/ha): 9.0; SAGPY herbicidal effect rating (Sagittaria pygmaea, L.; Rate 0.5000 kg/ha): 9.0; ORYSAT herbicidal effect rating ([4]; Rate 0.0320 kg/ha): 3.0; ORYSAT herbicidal effect rating ([4]; Rate 0.0620 kg/ha): 3.0; ORYSAT herbicidal effect rating ([4]; Rate 0.1250 kg/ha): 7.0; ORYSAT herbicidal effect rating ([4]; Rate 0.2500 kg/ha): 8.0; ORYSAT herbicidal effect rating ([4]; Rate 0.5000 kg/ha): 9.0 |
